The values that follow come from US6919375B1, “Sulfonated amino acid derivatives and metalloproteinase inhibitors containing the same” (Shionogi & Co., Ltd., priority 1996, dated 2005).

The target in this assay is T1, Type IV collagenase (MMP-9) (Homo sapiens, UniProt P14780).
T1 construct: made in house; host or cells: endogenous secretion by TPA-stimulated human fibrosarcoma HT 1080 cells; purified from conditioned medium
T1 sequence (P14780 107-707 limits assumed): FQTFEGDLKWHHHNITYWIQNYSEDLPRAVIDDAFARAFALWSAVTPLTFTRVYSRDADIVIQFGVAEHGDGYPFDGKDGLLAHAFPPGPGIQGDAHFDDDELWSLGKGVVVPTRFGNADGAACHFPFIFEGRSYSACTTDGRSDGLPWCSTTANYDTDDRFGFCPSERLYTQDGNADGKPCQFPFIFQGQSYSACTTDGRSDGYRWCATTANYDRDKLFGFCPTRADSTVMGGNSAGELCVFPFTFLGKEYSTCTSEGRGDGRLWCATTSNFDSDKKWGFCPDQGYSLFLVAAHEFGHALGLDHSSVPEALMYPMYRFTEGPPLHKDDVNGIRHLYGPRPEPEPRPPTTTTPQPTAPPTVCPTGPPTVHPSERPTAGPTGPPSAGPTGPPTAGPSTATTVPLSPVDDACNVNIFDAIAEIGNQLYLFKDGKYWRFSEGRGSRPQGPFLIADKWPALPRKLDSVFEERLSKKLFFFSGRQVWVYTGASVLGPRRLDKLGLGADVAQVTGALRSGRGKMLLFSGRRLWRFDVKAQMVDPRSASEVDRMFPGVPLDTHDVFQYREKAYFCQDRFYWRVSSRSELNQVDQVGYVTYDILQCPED
Description: Type IV collagenase (MMP-9) inhibition assay, fluorescent substrate kit. Type of assay: biochemical. The following applies: activated MMP-9 from HT 1080 cells; type IV collagenase activity kit, fluorescent intensity. The procedure:
(1) Isolation and Purification of MMP-9 (92 kDa, Gelatinase B)
Type IV collagenase (MMP-9) was purified according to the methods descrived in the following literature.
Subsequently, activated MMP-9 was obtained by treating the pro-MMP-9 with trypsin.
(2) Assay Methods of Type IV Collagenase Inhibitors
Collagenase assay was performed using the activated MMP-9 described above and the substrate supplied in the type IV collagenase activity kit (YAGAI, inc.), according to the manufacturer's protocol. The following 4 assays are performed per compound (inhibitor). • (A) substrate ([…]), enzyme (MMP-9), inhibitor • (B) substrate ([…]), inhibitor • (C) substrate ([…]), enzyme (MMP-9) • (D) substrate ([…])
According to the manufacturer's protocol, fluorescent intensity was measured and percent inhibition was determined by the following equation. Inhibition (%)={1−(A−B)/(C−D;)}×100
In turn, `O=C(NO)C(Cc1nc2ccccc2[nH]1)NS(=O)(=O)c1ccc(-c2ccccc2)cc1` (racemic) [Example 1b.1-35] displayed a half-inhibitory concentration (IC50) of 21.6 nM.
To `O=C(O)[C@@H](Cc1ccccc1)NS(=O)(=O)c1ccc(-c2nnn(-c3ccccc3)n2)cc1` [Example 1a-5-3] belongs 210 nM; to `O=C(NO)[C@@H](Cc1ccccc1)NS(=O)(=O)c1ccc(-c2nnn(-c3ccccc3)n2)cc1` [Example 1b-211], 5.65 nM.

As usually defined, the IC50 is the concentration needed to halve the response being measured. Read a high IC50 as weaker potency in that assay.
